Test results published in patent US7713950B2, “Antibacterial 1-(4-mono-and di-halomethylsulphonylphenyl)-2-acylamino-3-fluoroproponals and preparation thereof” (Intervet Inc., priority 2003, dated 2010).
≈ marks a conversion by molar mass, not a printed value.

Assays:
Type in all cases: cell-based
Staphylococcus aureus = assay: Broth microdilution susceptibility testing (MIC), Staphylococcus aureus; details: broth microdilution (NCCLS, 2002), read-out: Minimal inhibitory concentration against Staphylococcus aureus
Method: (§1) The list is not intended, nor should it be construed, to limit the scope of this invention in any manner whatsoever.
(§2) Compounds were tested for antimicrobial activity against several bacterial stains using standard broth microdilution susceptibility testing methodology (NCCLS, 2002). […] The enhanced activity of Compound 1 is especially noteworthy.
(§3) NCCLS. 2002. Performance standards for antimicrobial disk and dilution susceptibility tests for bacteria isolated from animals; approved standard-second edition. NCCLS document M31-A2 [ISBN 1-56238-461-9]. NCCLS, 940 West Valley Road, Suite 1400, Wayne, Pa. 19087-1898 USA.

[1] = tested on: Florfenicol-resistant Pasteurella multocida; assay: Broth microdilution susceptibility testing (MIC), florfenicol-resistant Pasteurella multocida; details: for MIC: Pasteurella multocida, broth microdilution (NCCLS, 2002), florfenicol-resistant strain, read-out: Minimal inhibitory concentration against Florfenicol-resistant Pasteurella multocida
Method: as §1, §2, §3

Pasteurella multocida = assay: Broth microdilution susceptibility testing (MIC), Pasteurella multocida; details: broth microdilution (NCCLS, 2002), read-out: Minimal inhibitory concentration against Pasteurella multocida
Method: as §1, §2, §3

Mannheimia haemolytica = assay: Broth microdilution susceptibility testing (MIC), Mannheimia haemolytica; details: broth microdilution (NCCLS, 2002), read-out: Minimal inhibitory concentration against Mannheimia haemolytica
Method: as §1, §2, §3

Escherichia coli = assay: Broth microdilution susceptibility testing (MIC), Escherichia coli; details: broth microdilution (NCCLS, 2002), read-out: Minimal inhibitory concentration against Escherichia coli
Method: as §1, §2, §3

five bacterial strains = assay: Broth microdilution susceptibility testing, comparison with florfenicol over the strain panel; details: five bacterial strains of Table 2
Method: as §1, §2, §3

Compound	MIC (Staphylococcus aureus)	MIC [1]	MIC (Pasteurella multocida)	MIC (Escherichia coli)	MIC (Mannheimia haemolytica)	Activity relative to florfenicol against florfenicol-resistant Pasteurella multocida ([1]; versus florfenicol)	Activity compared with florfenicol over the strains tested (five bacterial strains)
N#CCC(=O)N[C@H](CF)[C@H](O)c1ccc(S(=O)(=O)CF)cc1 [Compound 4]	8 µg/mL (≈ 24.1 µM)	> 128 µg/mL	1 µg/mL (≈ 3.01 µM)	16 µg/mL (≈ 48.1 µM)	0.5 µg/mL (≈ 1.5 µM)		
C[C@@H](N)C(=O)N[C@H](CF)[C@H](O)c1ccc(S(=O)(=O)CF)cc1 [Compound 6]	64 µg/mL (≈ 190 µM)	128 µg/mL (≈ 381 µM)	1 µg/mL (≈ 2.97 µM)	32 µg/mL (≈ 95.1 µM)	1 µg/mL (≈ 2.97 µM)		
CC(=O)N[C@H](CF)[C@H](O)c1ccc(S(=O)(=O)CF)cc1 [Compound 12]	> 128 µg/mL	32 µg/mL (≈ 104 µM)	1 µg/mL (≈ 3.25 µM)	> 128 µg/mL	2 µg/mL (≈ 6.51 µM)		
O=C(N[C@H](CF)[C@H](O)c1ccc(S(=O)(=O)C(Cl)Cl)cc1)C(Cl)Cl [Compound 3]	8 µg/mL (≈ 18.7 µM)	4 µg/mL (≈ 9.37 µM)	0.5 µg/mL (≈ 1.17 µM)	> 128 µg/mL	0.5 µg/mL (≈ 1.17 µM)		
O=C(N[C@H](CF)[C@H](O)c1ccc(S(=O)(=O)CF)cc1)C(Cl)Cl [Compound 1, N-((1S,2R)-1-(Fluoromethyl)-2-{4-[(fluoromethyl)sulfonyl]phenyl}-2-hydroxyethyl)-2,2-dichloroacetamide]	2 µg/mL (≈ 5.32 µM)	2 µg/mL (≈ 5.32 µM)	0.06 µg/mL (≈ 0.159 µM)	4 µg/mL (≈ 10.6 µM)	0.5 µg/mL (≈ 1.33 µM)	8 fold	more active than florfenicol for all five bacterial strains
O=C(N[C@H](CF)[C@H](O)c1ccc(S(=O)(=O)CF)cc1)C(F)(F)F [Compound 2]	16 µg/mL (≈ 44.3 µM)	8 µg/mL (≈ 22.1 µM)	1 µg/mL (≈ 2.77 µM)	32 µg/mL (≈ 88.6 µM)	0.5 µg/mL (≈ 1.38 µM)		
NCC(=O)N[C@H](CF)[C@H](O)c1ccc(S(=O)(=O)CF)cc1 [Compound 7]	64 µg/mL (≈ 199 µM)	> 128 µg/mL	1 µg/mL (≈ 3.1 µM)	128 µg/mL (≈ 397 µM)	1 µg/mL (≈ 3.1 µM)		
[N-]=[N+]=NCC(=O)N[C@H](CF)[C@H](O)c1ccc(S(=O)(=O)CF)cc1 [Compound 5]	8 µg/mL (≈ 23 µM)	16 µg/mL (≈ 45.9 µM)	0.25 µg/mL (≈ 0.718 µM)	8 µg/mL (≈ 23 µM)	0.25 µg/mL (≈ 0.718 µM)		

Further lines, with some results ahead:

MIC (Staphylococcus aureus)	MIC [1]	MIC (Pasteurella multocida)	MIC (Escherichia coli)	Compound	MIC (Mannheimia haemolytica)	Activity relative to florfenicol against florfenicol-resistant Pasteurella multocida ([1]; versus florfenicol)	Activity compared with florfenicol over the strains tested (five bacterial strains)
2 µg/mL (≈ 5.56 µM)	4 µg/mL (≈ 11.1 µM)	0.25 µg/mL (≈ 0.695 µM)	4 µg/mL (≈ 11.1 µM)	O=C(N[C@H](CF)[C@H](O)c1ccc(S(=O)(=O)CF)cc1)C(F)Cl (stereo partly drawn) [Compound 11]	0.25 µg/mL (≈ 0.695 µM)		
8 µg/mL (≈ 24.8 µM)	16 µg/mL (≈ 49.5 µM)	0.25 µg/mL (≈ 0.774 µM)	4 µg/mL (≈ 12.4 µM)	O=C(N[C@H](CO)[C@H](O)c1ccc([N+](=O)[O-])cc1)C(Cl)Cl [Chloramphenicol, reference compound]	1 µg/mL (≈ 3.09 µM)		
8 µg/mL (≈ 23.3 µM)	8 µg/mL (≈ 23.3 µM)	0.25 µg/mL (≈ 0.728 µM)	4 µg/mL (≈ 11.7 µM)	O=C(N[C@H](CF)[C@H](O)c1ccc(S(=O)(=O)CF)cc1)C(F)F [Compound 9]	0.5 µg/mL (≈ 1.46 µM)		
8 µg/mL (≈ 22.3 µM)	16 µg/mL (≈ 44.7 µM)	0.25 µg/mL (≈ 0.698 µM)	8 µg/mL (≈ 22.3 µM)	CS(=O)(=O)c1ccc([C@@H](O)[C@@H](CF)NC(=O)C(Cl)Cl)cc1 [Florfenicol, reference compound]	1 µg/mL (≈ 2.79 µM)		
4 µg/mL (≈ 9.51 µM)	4 µg/mL (≈ 9.51 µM)	0.25 µg/mL (≈ 0.594 µM)	8 µg/mL (≈ 19 µM)	O=C(N[C@H](CF)[C@H](O)c1ccc(S(=O)(=O)CF)cc1)C(Cl)Br (stereo partly drawn) [Compound 10]	0.5 µg/mL (≈ 1.19 µM)		
4 µg/mL (≈ 10.1 µM)	2 µg/mL (≈ 5.07 µM)	0.125 µg/mL (≈ 0.317 µM)	16 µg/mL (≈ 40.6 µM)	O=C(N[C@H](CF)[C@H](O)c1ccc(S(=O)(=O)C(F)F)cc1)C(Cl)Cl [Compound 8]	0.5 µg/mL (≈ 1.27 µM)		
		0.25 µg/mL (≈ 0.702 µM)	64 µg/mL (≈ 180 µM)	CS(=O)(=O)c1ccc([C@@H](O)[C@@H](CO)NC(=O)C(Cl)Cl)cc1 [Thiamphenicol, reference compound]	1 µg/mL (≈ 2.81 µM)		
